Source: patent publication US5770591A, “Bis-platinum complexes as chemotherapeutic agents” (The University of Vermont and State Agricultural College, priority 1994, dated 1998)
Like-named read-outs stand apart in the source and are kept apart here.

How the values were obtained:
[1] = test system: L-1210/DDP murine leukemia cells; experiment: In vitro cytotoxic activity (ID50), L-1210/DDP (resistant to cisplatin); type: cell-based; settings: Table III; dissolved in 10% DMSO
Excerpt: (§1) where py=pyridine; quin=quinoline; isoquin=isoquinoline; Meim=methylimidazole. […] Complexes were all dissolved in 10% DMSO.

[2] = test system: L-1210 murine leukemia cell lines
Protocol: The biological assays were performed as previously described by method of Hacker et al. Cancer Research, 1985, 45, 4748. Complexes were all dissolved in 10% DMSO.

[3] = test system: L-1210/0 murine leukemia cells; experiment: In vitro cytotoxic activity (ID50, 50% inhibition of cell growth), L-1210/0; type: cell-based; settings: Table III; dissolved in 10% DMSO; read-out: ID50 L-1210/O
Excerpt: as §1

tumors = settings: cited from earlier work
DNA = settings: background, cited from earlier work
[4] = test system: L-1210/DDP murine leukemia cells; experiment: In vitro cytotoxic activity (ID50), L-1210/DDP (resistant to cisplatin); type: cell-based; settings: Table II; solvent H2O, 10% DMSO or DMF per complex
[5] = test system: L-1210/dach murine leukemia cells; experiment: In vitro cytotoxic activity (ID50), L-1210/dach; type: cell-based; settings: Table II; solvent H2O, 10% DMSO or DMF per complex
Protocol: The tests were carried out in vitro according to the procedures outlined by M. P. Hacker et al in Cancer Research, 1985, 45, 4748.

[6] = test system: L-1210/0 murine leukemia cells; experiment: In vitro cytotoxic activity (ID50, 50% inhibition of cell growth), L-1210/0; type: cell-based; settings: Table II; solvent H2O, 10% DMSO or DMF per complex
[7] = treatment of patients; cited from earlier work

[Cl][Pt][Cl].c1ccncc1.c1ccncc1 [py py trans, trans-[PtCl2 (pyridine)2]]
IC50 [1]: 800 nM | Cytotoxic activity (in words) [2]: as cytotoxic as cisplatin | Cross-resistance with the parent cisplatin ([2]; Table III in vitro data): non-cross-resistant with the parent cisplatin | IC50 [3]: 610 nM

N.N.[Cl][Pt+2][Cl] [NH3 NH3 trans, trans-[PtCl2 (NH3)2]]
IC50 [1]: > 50000 nM | Antitumor activity / cytotoxic effect (tumors; background, listed as trans-DDP): do not exhibit antitumor activity | Antitumor activity / cytotoxic effect (tumors; background, listed as trans-[Pt(NH3)2 Cl2 ]): no cytotoxic effect | IC50 [3]: > 20000 nM | Formation of 1,2-intrastrand crosslink (DNA): cannot form the 1,2-intrastrand crosslink | DNA binding (DNA; listed as trans-DDP): do bind to DNA | DNA binding (DNA; listed as trans-[Pt(NH3)2 Cl2 ]): bind avidly to the DNA molecule

N.N.N.N.NCCCCN.[Cl-].[Cl-].[Cl][Pt+].[Cl][Pt+] [Example 1, [{trans-PtCl(NH3)2}2 H2 N(CH2)4 NH2]Cl2]
Cytotoxic activity (in words) [2]: highly active cytotoxic agents | IC50 [4]: 900 nM | IC50 [5]: 5400 nM | IC50 [6]: 3400 nM

trans-[PtCl2 (pyridine)(DMSO)] [py DMSO trans]
IC50 [1]: 5670 nM | IC50 [3]: 6620 nM

N.N.NCCCCN.O=C1CC(=O)[O][Pt][O]1.O=C1CC(=O)[O][Pt][O]1 [BisPtmal, [{cis-Pt(mal)(NH3)}2 (H2 N(CH2)4 NH2)]]
IC50 [4]: 5030 nM | IC50 [5]: 2550 nM | IC50 [6]: 930 nM

[Pt(dien)Cl]Cl
Cytotoxic activity (in words) [2]: totally inactive | Antitumor activity / cytotoxic effect (tumors): do not exhibit antitumor activity | IC50 [4]: > 20000 nM | DNA binding (DNA): do bind to DNA | IC50 [5]: > 20000 nM | IC50 [6]: > 20000 nM

N.N.[Cl][Pt][Cl] [NH3 NH3 cis, cis-[PtCl2 (NH3)2]]
IC50 [1]: 8000 nM | IC50 [3]: 200 nM

Cl.Cl.[Pt].c1ccncc1.c1ccncc1 [py py cis]
IC50 [1]: 12500 nM | IC50 [3]: 8960 nM

[PtCl2 (quinoline)(DMSO)] [quin DMSO trans]
IC50 [1]: 1570 nM | IC50 [3]: 400 nM

N.N.NCCCCN.[Cl][Pt][Cl].[Cl][Pt][Cl] [Example 3, [{cis-PtCl2 (NH3)}H2 N(CH2)4 NH2 {trans-PtCl2 (NH3)}]]
IC50 [4]: 3360 nM | IC50 [5]: 2600 nM | IC50 [6]: 760 nM

N.N.N.[Cl][Pt+] [[Pt(NH3)3 Cl]^+]
Antitumor activity / cytotoxic effect (tumors; background): no cytotoxic effect | Antitumor activity / cytotoxic effect (tumors; background, listed as [(Pt(NH3)3 Cl]^+)): do not exhibit antitumor activity | DNA binding (DNA): bind avidly to the DNA molecule | Formation of 1,2-intrastrand crosslink (DNA): cannot form the 1,2-intrastrand crosslink | DNA binding (DNA; listed as [(Pt(NH3)3 Cl]^+)): do bind to DNA

N.N.NCCCCN.[Cl][Pt][Cl].[Cl][Pt][Cl] [BisPt4, [{cis-PtCl2 (NH3)}2 (H2 N(CH2)4 NH2)]]
IC50 [4]: 2190 nM | IC50 [5]: 336 nM | IC50 [6]: 280 nM

[PtCl2 (iso-quinoline)(DMSO)] [iso-quin DMSO trans]
IC50 [1]: 1170 nM | IC50 [3]: 2750 nM

N.N.O=C([O-])C1(C(=O)[O-])CCC1.[Pt+2] [Carboplatin, [Pt(NH3)2 (CBDCA)]]
Nephrotoxicity [7]: marked reduction in the nephrotoxic effects | Antitumor activity / cytotoxic effect (tumors; background): effective against the same spectrum of carcinomas as cisplatin
